Holding throughout (assay type): physicochemical
Data set [1] can be described thus: Variable temperature XRPD (VT-XRPD): polymorphic form at each temperature. The protocol: VT-XRPD analysis was carried out on a Philips X'Pert Pro Multipurpose diffractometer equipped with a temperature chamber. The samples were loaded onto the VT stage and scanned between 4 and 35.99 °2θ using Cu K radiation (α1 λ=1.54060 Å; α2=1.54443 Å; β=1.39225 Å; α1:α2 ratio=0.5) running in Bragg-Brentano geometry (step size 0.008 °2θ) using 40 kV/40 mA generator settings. Measurements were performed at various temperature profiles. Any holds at specific temperatures are described in the temperature profiles for individual samples.
In another embodiment, VT-XRPD analysis of Compound A Form 11 was carried out using the heating program below in Table 11.

The nature of data set [2]: Aqueous solubility of solid state forms (with post-solubility pH and XRPD of excess solid). The note with it: for pH of the sample post-solubility: after aqueous solubility test; for solid form of excess solid post aqueous solubility analysis (XRPD): excess solid analyzed by XRPD.
Data set [3] is described as follows: Gravimetric Vapour Sorption (GVS), hygroscopicity, with post-GVS XRPD. The note with it: for GVS uptake: 25° C.; for solid form post-GVS (XRPD): material analyzed post-GVS by XRPD. The protocol:
Approximately 10-20 mg of sample was placed into a mesh vapor sorption balance pan and loaded into an IGASorp Moisture Sorption Analyser balance by Hiden Analytical. The sample was subjected to a ramping profile from 40-90% relative humidity (RH) at 10% increments, maintaining the sample at each step until a stable weight had been achieved (98% step completion, minimum step length 30 minutes, maximum step length 60 minutes) at 25° C. After completion of the sorption cycle, the sample was dried using the same procedure to 0% RH, and finally taken back to the starting point of 40% RH, using the same parameters outlined above. Two complete cycles were performed. The weight change during the sorption/desorption cycles were plotted, allowing for the hygroscopic nature of the sample to be determined.

Data set [4] in a line: Stability studies: seeded slurry trials, XRPD of the solid. The note with it: substance used as seed material. As for the experimental part: Samples of the Compound A Form slurries and the Compound A Form 11 slurries were taken for XRPD analysis after 24 hours at 40° C., after 2 hours at 5° C. and after 24 hours at 5° C.
Data set [5] is described as follows: Carr's index (powder flowability) of micronized material. The note with it: micronized to d50≤3 μm and d90≤5 μm; for Flowability: class from Carr's index. The protocol:
A widely-used metric for how well a powder flows is Carr's index (see, for example, Wang, Y. B. and Williams, R. O. III, “Powders” in Remington: Essentials of Pharmaceutics, Felton, L., ed., London: Pharmaceutical Press, 2013 at pp. 422-423). The bulk density of a powder is measured, along with its corresponding tapped density (after allowing the powder to be compressed in a standard tap density tester, such as the Gardco JV1000, Paul N. Gardner Company, Pompano Beach, Fla., according to a standard method such as that described in Chapter 616 of the United States Pharmacopeia). Once the bulk and tapped densities of a powder have been determined experimentally, Carr's index can be calculated from the following equation: Carr's index=(tapped density−bulk density)/tapped density×100.

[6] abbreviates: 25° C., final scan after cooling from the top temperature.

“And” between values parts separate entries of the source, which are not always exact repeats. Equal values may be shown once. A value given as a limit tells only on which side of the number the result lay.

As usually defined, the solubility is the concentration that dissolves in the medium under given conditions. High values mean a readily soluble substance, low ones a poorly soluble substance. For `Cc1cc(N2CCc3cc(F)ccc3C2)cc(C)c1NC(=O)CC(C)(C)C` [Compound A Form 2, N-(4-(6-fluoro-3,4-dihydroisoquinolin-2(1H)-yl)-2,6-dimethylphenyl)-3,3-dimethylbutanamide], the “VT-XRPD Polymorphic Form” value in data set [1] (setting [6]) is “Amorphous”; in data set [1] (25° C., initial scan) it was “Form 2”; in data set [1] (50° C.) it was “Form 2”; in data set [1] (100° C.) it was “Form 2”; in data set [1] (160° C.), “Partially crystalline”; in data set [1] (165° C.), “Partially crystalline”. The “VT-XRPD Polymorphic Form” value in data set [1] (170° C.), in data set [1] (180° C.) and in data set [1] (180° C. (post 10 minute hold)) was “Amorphous” throughout. The “pH of the sample post-solubility” value in data set [2] amounted to 6.4. Besides, in data set [2], the “solid form of excess solid post aqueous solubility analysis (XRPD)” value is reported as “Compound A Form 2”. Besides, the solubility in data set [2] (water, thermodynamic from solid) was below 100 µg/mL. For the same molecule, in data set [3], the “hygroscopicity by GVS analysis” value is reported as “slightly hygroscopic”. The GVS uptake in data set [3] (between 0-90% RH) is on record as 0.37%. Further, the “solid form post-GVS (XRPD)” value in data set [3] was “Compound A Form 2”.

As usually defined, the aqueous solubility is the dissolved amount per volume that the medium holds. High values mean a readily soluble substance, low ones a poorly soluble substance. `Cc1cc(N2CCc3cc(F)ccc3C2)cc(C)c1NC(=O)CC(C)(C)C` [Compound A Form 4, N-(4-(6-fluoro-3,4-dihydroisoquinolin-2(1H)-yl)-2,6-dimethylphenyl)-3,3-dimethylbutanamide]: the “Solid after 2 hours at 5° C. (XRPD)” value in data set [4] (slurry in 1-Propanol) and in data set [4] (slurry in Ethanol) was “Form 4” each time. In addition, the “Solid after 24 hours at 5° C. (XRPD)” value in data set [4] (slurry in 1-Propanol) and in data set [4] (slurry in Ethanol) was “Form 4” each time. The figures for the “Solid after 24 hours at 40° C. (XRPD)” value in data set [4] (slurry in 1-Propanol) and in data set [4] (slurry in Ethanol) were “Form 2 + 4” and “Form 4”, respectively. For the same molecule, the “VT-XRPD Polymorphic Form” value is “Form 9” in data set [1] (setting [6]); “Form 4” in data set [1] (25° C., initial scan); “Form 4” in data set [1] (50° C.); “Form 4” in data set [1] (60° C.); “Form 4” in data set [1] (70° C.); “Form 4” in data set [1] (80° C.). The “VT-XRPD Polymorphic Form” value is recorded as “Form 4” in data set [1] (95° C.); “Form 4” in data set [1] (100° C.); “Form 4 +” in data set [1] (110° C. (5 minute hold)); “Form 4 +” in data set [1] (120° C. (5 minute hold)); “Form 4 +” in data set [1] (130° C. (5 minute hold)); “Form 9” in data set [1] (140° C. (5 minute hold)). This molecule returned an aqueous solubility in data set [2] below 100 µg/mL. Also, in data set [2], the “pH of the sample post-solubility” value was 6.3 and 4.9. Moreover, in data set [2], the “solid form of excess solid post aqueous solubility analysis (XRPD)” value is “mixture of Compound A Form 4 and Compound A Form 11”. Besides, in data set [3], the “hygroscopicity by GVS analysis” value is on record as “slightly hygroscopic”. In data set [3] (at 90% RH), this molecule displayed a GVS uptake of 0.4%. The “solid form post-GVS (XRPD)” value in data set [3] is recorded as “Compound A Form 4”. In data set [5], the “Carr's index” value is on record as 8. In addition, the Flowability entry in data set [5] is recorded as “excellent”.

`Cc1cc(N2CCc3cc(F)ccc3C2)cc(C)c1NC(=O)CC(C)(C)C` [Compound A Form 9, N-(4-(6-fluoro-3,4-dihydroisoquinolin-2(1H)-yl)-2,6-dimethylphenyl)-3,3-dimethylbutanamide]: the “VT-XRPD Polymorphic Form” value in data set [1] (setting [6]) is on record as “Amorphous”; in data set [1] (25° C., initial scan) it was “Form 9”; in data set [1] (50° C.), “Form 9”; in data set [1] (100° C.), “Form 9”; in data set [1] (150° C.), “Form 9”; in data set [1] (155° C.) it was “Form change noted-Similar to Form 9”. Moreover, the “VT-XRPD Polymorphic Form” value is recorded as “Partially crystalline” in data set [1] (165° C.), “Partially crystalline” in data set [1] (170° C.) and “Amorphous” in data set [1] (180° C.). The aqueous solubility in data set [2] was below 100 µg/mL. For the same molecule, in data set [2], the “pH of the sample post-solubility” value came out at 7.3. The “solid form of excess solid post aqueous solubility analysis (XRPD)” value in data set [2] is on record as “converted to Compound A Form 4”. Moreover, the “hygroscopicity by GVS analysis” value in data set [3] was “slightly hygroscopic”. The GVS uptake in data set [3] (at 90% RH) amounted to 0.8%. Further, the “solid form post-GVS (XRPD)” value in data set [3] is given as “Compound A Form 9”.

Take `Cc1cc(N2CCc3cc(F)ccc3C2)cc(C)c1NC(=O)CC(C)(C)C` [Compound A Form 11, N-(4-(6-fluoro-3,4-dihydroisoquinolin-2(1H)-yl)-2,6-dimethylphenyl)-3,3-dimethylbutanamide]: the “Solid after 2 hours at 5° C. (XRPD)” value in data set [4] (slurry in 1-Propanol) and in data set [4] (slurry in Ethanol) was “Form 4” each time. Further, the “Solid after 24 hours at 5° C. (XRPD)” value in data set [4] (slurry in 1-Propanol) and in data set [4] (slurry in Ethanol) was “Form 4” throughout. The “Solid after 24 hours at 40° C. (XRPD)” value in data set [4] (slurry in Ethanol) is “Form 2”. Also, the “VT-XRPD Polymorphic Form” value in data set [1] (setting [6]) is on record as “Amorphous”; in data set [1] (25° C., initial scan), “Form 11”; in data set [1] (50° C.), “Form 11”; in data set [1] (100° C.) it was “Form 11”; in data set [1] (150° C.), “Form change”; in data set [1] (155° C.), “Partially crystalline”. For the same molecule, the “VT-XRPD Polymorphic Form” value is “Partially crystalline” in data set [1] (160° C.); “Partially crystalline” in data set [1] (165° C.); “Partially crystalline” in data set [1] (170° C.); “Partially crystalline” in data set [1] (180° C.); “Amorphous” in data set [1] (190° C.). The “hygroscopicity by GVS analysis” value in data set [3] is reported as “slightly hygroscopic”. This molecule returned a GVS uptake in data set [3] (at 90% RH) of 0.5%. For the same molecule, the “solid form post-GVS (XRPD)” value in data set [3] was “mixture of Compound A Form 4 and Compound A Form 11”.

`Cc1cc(N2CCc3cc(F)ccc3C2)cc(C)c1NC(=O)CC(C)(C)C` [Compound A, N-(4-(6-fluoro-3,4-dihydroisoquinolin-2(1H)-yl)-2,6-dimethylphenyl)-3,3-dimethylbutanamide]: in data set [5], the “Carr's index” value was 36 and the Flowability entry was “very poor”.

Source of the values: patent publication US11091441B2, “Solid state crystalline forms of a selective potassium channel modulator” (Xenon Pharmaceuticals Inc., priority 2019, dated 2021).
